In brackets after ≈: the same amount, converted by molar mass. Several values for one entry are separate records, joined by “and”; a condition that tells them apart may be missing. Equal entries are not always repeated.
Columns and labels:
[1] = test system: Plasmopara viticola; experiment: in vitro antifungal action of single ingredients on Plasmopara viticola; assay type: cell-based
Source text: In Vitro Results Showing the Syngergistic Action of Yucca Juice with the Other Compounds of the Composition According to the Invention on A. solani, Z. tritici, and Plasmopara viticola,
The following tables show in vitro the synergistic antifungal action between yucca juice and the other compounds of the composition of the invention on various pathogens. The concentrations given are as a mass %. The solutions tested as aqueous solutions.
Mo denotes sodium molybdate, Bo denotes boron ethanolamine.

[2] = test system: Septoria tritici (Zymoseptoria tritici); experiment: in vitro 96-well micro-titration test on Septoria tritici / Zymoseptoria tritici; assay type: cell-based; conditions: for EC50: Zymoseptoria tritici, S. tritici, Table 12, read-out: EC50 (μg/ml or ppm)
[3] = test system: Alternaria solani; experiment: in vitro 96-well micro-titration test on Alternaria solani spores; assay type: cell-based; conditions: for EC95 (%): A. solani, Table 22, ingredient alone in water
[4] = test system: Fusarium graminearum; experiment: microbe, parasite or virus in culture; assay type: cell-based; conditions: for EC95 (μg/ml or ppm) / EC50: Fusarium graminearum; for EC95 (μg/ml or ppm): Table 9; for EC50: read-out: EC50 (μg/ml or ppm)
[5] = test system: Pythium ultimum; experiment: in vitro test on P. ultimum; conditions: for EC50: Globisporangium ultimum, read-out: EC50 (μg/ml or ppm); for EC95 (μg/ml or ppm): P. ultimum, Table 14
Experimental: The evaluations were performed with a 96-well micro-titration test to evaluate the in vitro fungicidal activity of each solution.
Three repetitions (wells) were carried out. The value of the concentration making it possible to inhibit the growth of each pathogen (EC50) to 50% was determined using the optical density measurement.

[6] = Concentration 0.05% mass of the stated aqueous solution

Compound: O=S(=O)([O-])[O-].[Zn+2] [Zn 7%]
- in vitro activity against Plasmopara viticola, ingredient alone in water ([1]; Concentration 0.05%): 7.02%
- in vitro activity against Plasmopara viticola, ingredient alone in water ([1]; Concentration 0.50%): 50.25%
- in vitro activity against Plasmopara viticola, ingredient alone in water ([1]; Concentration 1.00%): 65.51%
- in vitro activity against Plasmopara viticola, ingredient alone in water ([1]; Concentration 2.00%): 99.08%
- in vitro activity against Plasmopara viticola, ingredient alone in water ([1]; Concentration 3.00%): 99.29%
- in vitro activity against Plasmopara viticola, ingredient alone in water ([1]; Concentration 6.00%): 98.93%
- in vitro activity against Plasmopara viticola, ingredient alone in water ([1]; Concentration 10.00%): 99.08%
- inhibition of Z. tritici, ingredient alone in water ([2]; Concentration 0.05%): −4.9%
- inhibition of Z. tritici, ingredient alone in water ([2]; Concentration 0.50%): 28.1%
- inhibition of Z. tritici, ingredient alone in water ([2]; Concentration 1.00%): 39.8%
- inhibition of Z. tritici, ingredient alone in water ([2]; Concentration 2.00%): 44.1%
- inhibition of Z. tritici, ingredient alone in water ([2]; Concentration 3.00%): 47.4%
- inhibition of Z. tritici, ingredient alone in water ([2]; Concentration 6.00%): 65.0%
- inhibition of Z. tritici, ingredient alone in water ([2]; Concentration 10.00%): 77.2%
- EC95 (%) ([2]; Z. tritici, Table 23, ingredient alone in water): >10%
- EC95 (%) [3]: >10%
- inhibition of A. solani, ingredient alone in water [3, 6]: −1.4%
- inhibition of A. solani, ingredient alone in water ([3]; Concentration 0.50%): 6.3%
- inhibition of A. solani, ingredient alone in water ([3]; Concentration 1.00%): 16.6%
- inhibition of A. solani, ingredient alone in water ([3]; Concentration 2.00%): 32.1%
- inhibition of A. solani, ingredient alone in water ([3]; Concentration 3.00%): 37.2%
- inhibition of A. solani, ingredient alone in water ([3]; Concentration 6.00%): 49.7%
- inhibition of A. solani, ingredient alone in water ([3]; Concentration 10.00%): 59.1%

Compound: Oc1ccc(/C=C/c2cc(O)cc(O)c2)cc1 [resveratrol, 5-[(E)-2-(4-hydroxyphenyl)-ethenyl]benzene-1,3-diol]
- inhibition of Fusarium graminearum ([4]; 0.0064 μg/ml or ppm): 0.30%
- inhibition of Fusarium graminearum ([4]; 0.032 μg/ml or ppm): −2.90%
- inhibition of Fusarium graminearum ([4]; 0.16 μg/ml or ppm): −3.90%
- inhibition of Fusarium graminearum ([4]; 0.8 μg/ml or ppm): −1.60%
- inhibition of Fusarium graminearum ([4]; 4 μg/ml or ppm): −3.80%
- inhibition of Fusarium graminearum ([4]; 20 μg/ml or ppm): 18.20%
- inhibition of Fusarium graminearum ([4]; 100 μg/ml or ppm): 53.30%
- inhibition of Fusarium graminearum ([4]; 100 μg/ml or ppm, listed as Resveratrol (trans)): more than 50%
- EC95 (μg/ml or ppm) [4]: >100 μg/ml or ppm
- EC50 [4]: 29.5 µg/mL (≈ 129 µM)
- % inhibition of pathogen growth (S. tritici) ([2]; 0.0064 μg/ml or ppm): 0.00%
- % inhibition of pathogen growth (S. tritici) ([2]; 0.032 μg/ml or ppm): −0.40%
- % inhibition of pathogen growth (S. tritici) ([2]; 0.16 μg/ml or ppm): −0.40%
- % inhibition of pathogen growth (S. tritici) ([2]; 0.8 μg/ml or ppm): 0.60%
- % inhibition of pathogen growth (S. tritici) ([2]; 4 μg/ml or ppm): −2.60%
- % inhibition of pathogen growth (S. tritici) ([2]; 20 μg/ml or ppm): −2.00%
- % inhibition of pathogen growth (S. tritici) ([2]; 100 μg/ml or ppm): 104.90%
- EC50 [2]: 72 µg/mL (≈ 315 µM)
- concentration showing efficacy against Septoria tritici ([2]; in vitro): 100 ppm
- inhibition (%) of A. solani growth ([3]; 0.0064 μg/ml or ppm in water): 6.20%
- inhibition (%) of A. solani growth ([3]; 0.032 μg/ml or ppm in water): 13.60%
- inhibition (%) of A. solani growth ([3]; 0.16 μg/ml or ppm in water): 13.70%
- inhibition (%) of A. solani growth ([3]; 0.8 μg/ml or ppm in water): 16.10%
- inhibition (%) of A. solani growth ([3]; 4 μg/ml or ppm in water): 11.20%
- inhibition (%) of A. solani growth ([3]; 20 μg/ml or ppm in water): 28.70%
- inhibition (%) of A. solani growth ([3]; 100 μg/ml or ppm in water): 54.7%
- inhibition of P. ultimum ([5]; 0.0064 μg/ml or ppm): −8.20%
- inhibition of P. ultimum ([5]; 0.032 μg/ml or ppm): −0.30%
- inhibition of P. ultimum ([5]; 0.16 μg/ml or ppm): 0.00%
- inhibition of P. ultimum ([5]; 0.8 μg/ml or ppm): −1.70%
- inhibition of P. ultimum ([5]; 4 μg/ml or ppm): 23.30%
- inhibition of P. ultimum ([5]; 20 μg/ml or ppm): 72.40%
- inhibition of P. ultimum ([5]; 100 μg/ml or ppm): 100% and 101.30%
- EC50 [5]: 8.89 µg/mL (≈ 38.9 µM)
- EC95 (μg/ml or ppm) [5]: 73.85 μg/ml or ppm

Compound: C[C@@H]1CC[C@@]2(OC1)O[C@H]1C[C@H]3[C@@H]4CC[C@@H]5C[C@@H](O)CC[C@]5(C)[C@H]4CC[C@]3(C)[C@H]1[C@@H]2C [smilagenin, (25R)-5beta-Spirostan-3beta-ol]
- inhibition of Fusarium graminearum ([4]; 0.0064 μg/ml or ppm): 5.00%
- inhibition of Fusarium graminearum ([4]; 0.032 μg/ml or ppm): −2.60%
- inhibition of Fusarium graminearum ([4]; 0.16 μg/ml or ppm): −0.80%
- inhibition of Fusarium graminearum ([4]; 0.8 μg/ml or ppm): 2.40%
- inhibition of Fusarium graminearum ([4]; 4 μg/ml or ppm): 1.50%
- inhibition of Fusarium graminearum ([4]; 20 μg/ml or ppm): −8.70%
- inhibition of Fusarium graminearum ([4]; 100 μg/ml or ppm): 2.00%
- EC95 (μg/ml or ppm) [4]: >100 μg/ml or ppm
- EC50 [4]: > 100 µg/mL
- % inhibition of pathogen growth (S. tritici) ([2]; 0.0064 μg/ml or ppm): −3.90%
- % inhibition of pathogen growth (S. tritici) ([2]; 0.032 μg/ml or ppm): −2.30%
- % inhibition of pathogen growth (S. tritici) ([2]; 0.16 μg/ml or ppm): −1.90%
- % inhibition of pathogen growth (S. tritici) ([2]; 0.8 μg/ml or ppm): −9.50%
- % inhibition of pathogen growth (S. tritici) ([2]; 4 μg/ml or ppm): 0.00%
- % inhibition of pathogen growth (S. tritici) ([2]; 20 μg/ml or ppm): −2.10%
- % inhibition of pathogen growth (S. tritici) ([2]; 100 μg/ml or ppm): −0.20%
- EC50 [2]: > 100 µg/mL
- inhibition (%) of A. solani growth ([3]; 0.0064 μg/ml or ppm in water): 7.9%
- inhibition (%) of A. solani growth ([3]; 0.032 μg/ml or ppm in water): 10.1%
- inhibition (%) of A. solani growth ([3]; 0.16 μg/ml or ppm in water): 19.6%
- inhibition (%) of A. solani growth ([3]; 0.8 μg/ml or ppm in water): 22.6%
- inhibition (%) of A. solani growth ([3]; 4 μg/ml or ppm in water): 28.0%
- inhibition (%) of A. solani growth ([3]; 20 μg/ml or ppm in water): 29.3%
- inhibition (%) of A. solani growth ([3]; 40 μg/ml or ppm in water): 30%
- inhibition of P. ultimum ([5]; 0.0064 μg/ml or ppm): −6.70%
- inhibition of P. ultimum ([5]; 0.032 μg/ml or ppm): 0.00%
- inhibition of P. ultimum ([5]; 0.16 μg/ml or ppm): −0.60%
- inhibition of P. ultimum ([5]; 0.8 μg/ml or ppm): 0.10%
- inhibition of P. ultimum ([5]; 4 μg/ml or ppm): −3.40%
- inhibition of P. ultimum ([5]; 20 μg/ml or ppm): −0.10%
- inhibition of P. ultimum ([5]; 100 μg/ml or ppm): 0.00%
- EC50 [5]: > 100 µg/mL
- EC95 (μg/ml or ppm) [5]: >100 μg/ml or ppm

Compound: boron ethanolamine [Bo 0.49%]
- in vitro activity against Plasmopara viticola, ingredient alone in water ([1]; Concentration 0.05%): 17.33%
- in vitro activity against Plasmopara viticola, ingredient alone in water ([1]; Concentration 0.50%): 68.80%
- in vitro activity against Plasmopara viticola, ingredient alone in water ([1]; Concentration 1.00%): 84.60%
- in vitro activity against Plasmopara viticola, ingredient alone in water ([1]; Concentration 2.00%): 90.99%
- in vitro activity against Plasmopara viticola, ingredient alone in water ([1]; Concentration 3.00%): 95.55%
- in vitro activity against Plasmopara viticola, ingredient alone in water ([1]; Concentration 6.00%): 98.96%
- in vitro activity against Plasmopara viticola, ingredient alone in water ([1]; Concentration 10.00%): 99.00%
- inhibition of Z. tritici, ingredient alone in water ([2]; Concentration 0.05%): 8.6%
- inhibition of Z. tritici, ingredient alone in water ([2]; Concentration 0.50%): 7.6%
- inhibition of Z. tritici, ingredient alone in water ([2]; Concentration 1.00%): 5.3%
- inhibition of Z. tritici, ingredient alone in water ([2]; Concentration 2.00%): −1.6%
- inhibition of Z. tritici, ingredient alone in water ([2]; Concentration 3.00%): −0.8%
- inhibition of Z. tritici, ingredient alone in water ([2]; Concentration 6.00%): −4.3%
- inhibition of Z. tritici, ingredient alone in water ([2]; Concentration 10.00%): −1.0%
- EC95 (%) [3]: >10%
- inhibition of A. solani, ingredient alone in water [3, 6]: 6.5%
- inhibition of A. solani, ingredient alone in water ([3]; Concentration 0.50%): 0.9%
- inhibition of A. solani, ingredient alone in water ([3]; Concentration 1.00%): −0.5%
- inhibition of A. solani, ingredient alone in water ([3]; Concentration 2.00%): −2.6%
- inhibition of A. solani, ingredient alone in water ([3]; Concentration 3.00%): 2.4%
- inhibition of A. solani, ingredient alone in water ([3]; Concentration 6.00%): −3.6%
- inhibition of A. solani, ingredient alone in water ([3]; Concentration 10.00%): −3.3%
